US20240132910A1, “USE OF HISTIDINE RICH PEPTIDES AS A TRANSFECTION REAGENT FOR rAAV AND rBV PRODUCTION” (BioMarin Pharmaceutical Inc., priority 2021, published 2024)
Where two headings read alike, the source gives them in different places. Ends that are not written are not given here.

Tests used:
Sf9 cells [1] = experiment: rBV titers from bacmid-transfected Sf9 cells; assay type: cell-based, Spodoptera frugiperda; settings: FIG. 18
Procedure: The titer of the rBV can be determined using a foci/viral plaque assay. This assay first includes the step of infecting cells with serial dilutions of a solution containing rBV. After infection occurs for a predetermined time, the rBV is removed from the cultures and the cells are incubated for a pre-determined time. After the pre-determined time has elapsed, a plaquing media (e.g., containing agarose) is added to the cultures and allowed to harden. The cells are allowed to further incubate for a pre-determined time and the number of plaques are counted after the pre-determined time. The titer is calculated using the following formula: Titer (plaque forming units/mL)=number of plaques×dilution factor×(1/(mL of inoculum/well)
AAV5 capsids were also produced in Sf9 cells. To produce the AAV5 capsids, Sf9 cells were transfected with bacmids having nucleotide sequences for generating AAV5 capsids or providing an AAV genome vector using the control transfection reagent and different HRPs. […] In culture, the rBVs generated from the initial bacmid transfection subsequently infect other Sf9 cells that in turn generated more rBVs.

Sf9 cells [2] = experiment: AAV5 capsids from Sf9 cells infected with the rBVs, ddPCR; assay type: cell-based, Spodoptera frugiperda; settings: rBVs from transfected Sf9 cells, FIG. 19
Procedure: The different rBVs were collected and used to further infect naive Sf9 cells to generate AAV5 capsids, where the rBVs have nucleotide sequences for generating AAV5 capsids. The titers were determined using ddPCR. […] The AAV5 capsids produced using LAH4-L1-F4 had concentrations of the VP1 capsid protein and ratios of capsid to vector genomes that were the same as AAV5 capsids produced using the control transfection reagent.

in vitro = in vitro ADME; settings: human, cells or culture medium
Procedure: Clearance of the ancillary materials such as transfection reagent during bioprocessing is emphasized. We hypothesized that LAH4 is largely degraded by cellular proteases after transfection process is completed. […] Different concentrations of the LAH4 peptide were added to cell culture volumes of 3 L and 100 L (i.e., bioreactors). At 4 hours post transfection, the LAH4 peptide concentration was reduced by ˜45% to ˜85% relative to initial LAH4 peptide concentration. At 24 hours post transfection, the LAH4 peptide concentration was reduced by ˜83% to ˜97% relative to initial LAH4 peptide concentration. At 48 hours post transfection, the LAH4 peptide concentration was reduced by ˜93% to ˜99% relative to initial LAH4 peptide concentration. At 72 hours post transfection, the LAH4 peptide concentration was reduced by ˜96% to ˜99% relative to initial LAH4 concentration.
Cell culturing: Suspension HEK293 cells are cultured according to the manufacturer's instructions in the provided cell culture media. For small scale transfection study HEK293 cells are seeded in the range of at a predetermined cell density in 125 ml Erlenmeyer shake flasks on the day of transfection.
LAH4 detection in cells: Samples are collected at different time points after transfection and analyzed using LC/MS assay.

[3] = Stability of DNA:transfection reagent complexes before transfection
Procedure: The LAH4 peptide was allowed to incubate with the plasmids for more than 1 hour for large scale (more than or equal 100 L) transient transfections since this incubation time allowed for improved stability of the transfection complexes such that the processes were robust and reproducible. It was discovered that LAH4: DNA complexes are stable at least for 1 hour. In a follow up study, the stability of LAH:DNA complexes are evaluated for up to 1 week when stored at 2-8° C. and/or room temperature and with or without exposure to ambient light.
Transfection: LAH4 solution from the same batch is kept at −20° C. in single use aliquots. LAH4 is thawed at RT and mixed with plasmid DNA containing GFP reporter gene. DNA:LAH4 complexes are kept in closed caps tubes to prevent evaporation at either room temperature or 2-8° C. for indicated periods of time before transfection.
Stability of LAH4:DNA complexes: Biophysical characterization of LAH4:DNA complexes is performed. Methods can include size and charge measurements.

[4] = Viability of transfected HEK293 cells (Trypan Blue exclusion), AAV9 production in Ambr15; assay type: cell-based; settings: human, read-out: average cell viability
Procedure: The cell viabilities were quantified using an automated cell counter and Trypan Blue exclusion.
In Ambr15 minibioreactors (15 mL volume), AAV9 capsids were produced in HEK293 cells transfected with plasmids for producing AAV9 capsids and providing an AAV genome vector containing an GFP expression cassette using different complexation volumes of the LAH4 peptide. Prior to transfection, the plasmids were mixed with a concentration of the LAH4 peptide and incubated for 10 minutes and 60 minutes. The LAH4/plasmids mixtures had volumes that were 1% and 10% of the HEK293 cell culture volume. The titers were determined using ddPCR and GFP intensity was measured by attune flow cytometer.

What does the source list for “KKALLAHFFHLLALLALHFFHALKKA (Synthetic LAH4-L1-F4 peptide)”?
rBV titers versus control reagent (Sf9 cells [1]): comparable; AAV5 capsid titers versus control reagent (Sf9 cells [2]): comparable

For “KKALLALALHHLAHLAHHLALALKKA (Synthetic LAH5 peptide)”, which “rBV titers versus control reagent” value (Sf9 cells [1]) is on record?
The value was “comparable”.

What does the source list for KKALLALALHHLAHLALHLALALKKA [LAH4]?
metabolised at 72 h (in vitro): > 95%; stability of LAH4:DNA complexes [3]: ≥ 1 h; viability ([4]; Ambr15, 1% complexation volume, FIG. 10D): > 75%; viability ([4]; Ambr15, 10% complexation volume, FIG. 10D): ~72.5%; viability ([4]; Ambr15, 10 minute complexation time, FIG. 10H): ~72.5%; viability ([4]; Ambr15, 60 minute complexation time, FIG. 10H): > 75%

For “polyethylenimine [PEI, reference compound]”, which “stability when mixed with plasmids and incubated for extended periods of time” value [3] is on record?
The value was “does not remain stable”.
